Laboratory results as given in patent publication US20060069132A1, “Azolecarboxamide herbicides” (priority 2004, published 2006).

Key:
chickweed = assay: Test C postemergence herbicide test; assay type: in vivo, Stellaria media
In short: (§1)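 Weeds and wheat were sprayed after emergence, at a height of 2 to 18 cm (1–4 leaves), and paddy barnyardgrass was flooded and treated at two leaves. Assessment took place 12–14 days later in the greenhouse on a 0-to-100 visual control scale. A dash means no result was obtained.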

Italian ryegrass [1] = assay: Test C postemergence herbicide test; assay type: in vivo, Lolium multiflorum
In short: as §1

wild oat = assay: Test C postemergence herbicide test; assay type: in vivo, Avenafatua
In short: as §1

bermudagrass = assay: Test E pre-/postemergence herbicide test; assay type: in vivo, Cynodon dactylon; conditions: Preemergence
In short: (§2)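 Greenhouse whole-plant test: compounds formulated in a non-phytotoxic solvent mixture with surfactant were applied preemergence to planted seeds and, concurrently, postemergence to plants 2 to 18 cm tall. Response was scored visually after 12 to 14 days, 0 meaning no effect and 100 complete control.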

Surinam grass = assay: Test E pre-/postemergence herbicide test; assay type: in vivo, Urochloa decumbens; conditions: Preemergence
In short: as §2

johnsongrass = assay: Test E pre-/postemergence herbicide test; assay type: in vivo, Sorghum halepense; conditions: Preemergence
In short: as §2

common ragweed = assay: Test E pre-/postemergence herbicide test; assay type: in vivo, Ambrosia elatior; conditions: Preemergence
In short: as §2

prickly sida = assay: Test E pre-/postemergence herbicide test; assay type: in vivo, Sida spinosa; conditions: Preemergence
In short: as §2

Italian ryegrass [2] = assay: Test E pre-/postemergence herbicide test; assay type: in vivo, Lolium multiflorum; conditions: Preemergence
In short: as §2

common purslane = assay: Test E pre-/postemergence herbicide test; assay type: in vivo, Portulaca oleracea; conditions: Preemergence
In short: as §2

common groundsel = assay: Test E pre-/postemergence herbicide test; assay type: in vivo, Senecio vulgaris; conditions: Preemergence
In short: as §2

tropical spiderwort = assay: Test E pre-/postemergence herbicide test; assay type: in vivo, Commelina benghalensis; conditions: Preemergence
In short: as §2

quackgrass = assay: Test E pre-/postemergence herbicide test; assay type: in vivo, Elytrigia repens; conditions: Preemergence
In short: as §2

Canada horseweed = assay: Test E pre-/postemergence herbicide test; assay type: in vivo, Erigeron Canadensis; conditions: Preemergence
In short: as §2

[3] = Postemergence, 500 g ai/ha, scale 0 to 100
[4] = Postemergence, 250 g ai/ha, scale 0 to 100, 0 no effect, 100 complete control
[5] = postemergence, 125 g ai/ha, scale 0 to 100
[6] = postemergence, 62 g ai/ha, scale 0 to 100
[7] = 125 g ai/ha, scale 0 (no effect) to 100 (complete control)
[8] = 250 g ai/ha, scale 0 (no effect) to 100 (complete control)
[9] = 500 g ai/ha, scale 0 (no effect) to 100 (complete control)

For `CCNC(=O)c1cccc(NC(=O)c2cc(C(C)(C)C)nn2CC)n1` [Compound 144], the “Chickweed plant response rating” value (chickweed; [3]) was 100, the “Plant response rating, Chickweed” value (chickweed; [4]) was 100 and the “Plant response rating, Chickweed” value (chickweed; [5]) was 100. The “Plant response rating, Chickweed” value (chickweed; [6]) was 100, the “Ryegrass, Italian plant response rating” value (Italian ryegrass [1]; [3]) was 50 and the “Plant response rating, Ryegrass, Italian” value (Italian ryegrass [1]; [4]) was 40. The “Plant response rating, Ryegrass, Italian” value (Italian ryegrass [1]; [5]) was 20, the “Plant response rating, Ryegrass, Italian” value (Italian ryegrass [1]; [6]) was 20 and the “Oat, Wild plant response rating” value (wild oat; [3]) was 50. For the same molecule, the “Plant response rating, Oat, Wild” value (wild oat; [4]) was 50, the “Plant response rating, Oat, Wild” value (wild oat; [5]) was 50 and the “Plant response rating, Oat, Wild” value (wild oat; [6]) was 30. The “Plant response rating, Bermudagrass” value (bermudagrass; 62 g ai/ha, scale 0 to 100) was 50, the “Plant response rating, Bermudagrass” value (bermudagrass; [7]) was 80 and the “Plant response rating, Bermudagrass” value (bermudagrass; [8]) was 85. For the same molecule, the “Plant response rating, Bermudagrass” value (bermudagrass; [9]) was 90, the “Plant response rating, Surinam Grass” value (Surinam grass; 62 g ai/ha, scale 0 to 100) was 10 and the “Plant response rating, Surinam Grass” value (Surinam grass; 125 g ai/ha, scale 0 to 100) was 50. For the same molecule, the “Plant response rating, Surinam Grass” value (Surinam grass; [9]) was 70, the “Plant response rating, Johnsongrass” value (johnsongrass; 62 g ai/ha, scale 0 to 100) was 30 and the “Plant response rating, Johnsongrass” value (johnsongrass; [7]) was 50. The “Plant response rating, Johnsongrass” value (johnsongrass; [8]) was 60, the “Plant response rating, Johnsongrass” value (johnsongrass; [9]) was 60 and the “Plant response rating, Ragweed” value (common ragweed; 62 g ai/ha, scale 0 to 100) was 0. The “Plant response rating, Ragweed” value (common ragweed; [7]) was 30, the “Plant response rating, Ragweed” value (common ragweed; [8]) was 40 and the “Plant response rating, Ragweed” value (common ragweed; [9]) was 40. For the same molecule, the “Plant response rating, Prickly Sida” value (prickly sida; 62 g ai/ha, scale 0 to 100) was 10, the “Plant response rating, Prickly Sida” value (prickly sida; [7]) was 90 and the “Plant response rating, Prickly Sida” value (prickly sida; [8]) was 90. The “Plant response rating, Prickly Sida” value (prickly sida; [9]) was 95, the “Plant response rating, Ryegrass, Italian” value (Italian ryegrass [2]; 62 g ai/ha, scale 0 to 100) was 10 and the “Plant response rating, Ryegrass, Italian” value (Italian ryegrass [2]; [7]) was 60. For the same molecule, the “Plant response rating, Ryegrass, Italian” value (Italian ryegrass [2]; [8]) was 80, the “Plant response rating, Ryegrass, Italian” value (Italian ryegrass [2]; [9]) was 95 and the “Plant response rating, Purslane” value (common purslane; 62 g ai/ha, scale 0 to 100) was 0. The “Plant response rating, Purslane” value (common purslane; [7]) was 20, the “Plant response rating, Purslane” value (common purslane; [8]) was 90 and the “Plant response rating, Purslane” value (common purslane; [9]) was 100. For the same molecule, the “Plant response rating, Groundsel” value (common groundsel; 62 g ai/ha, scale 0 to 100) was 10, the “Plant response rating, Groundsel” value (common groundsel; [7]) was 100 and the “Plant response rating, Groundsel” value (common groundsel; [8]) was 100. The “Plant response rating, Groundsel” value (common groundsel; [9]) was 100, the “Plant response rating, Spiderwort” value (tropical spiderwort; 62 g ai/ha, scale 0 to 100) was 60 and the “Plant response rating, Spiderwort” value (tropical spiderwort; [7]) was 60. For the same molecule, the “Plant response rating, Spiderwort” value (tropical spiderwort; [8]) was 60, the “Plant response rating, Spiderwort” value (tropical spiderwort; [9]) was 100 and the “Plant response rating, Quackgrass” value (quackgrass; 62 g ai/ha, scale 0 to 100) was 10. For the same molecule, the “Plant response rating, Quackgrass” value (quackgrass; [7]) was 30, the “Plant response rating, Quackgrass” value (quackgrass; [8]) was 70 and the “Plant response rating, Quackgrass” value (quackgrass; [9]) was 80. For the same molecule, the “Plant response rating, Horseweed” value (Canada horseweed; 62 g ai/ha, scale 0 to 100) was 70, the “Plant response rating, Horseweed” value (Canada horseweed; [7]) was 100 and the “Plant response rating, Horseweed” value (Canada horseweed; [8]) was 100. The “Plant response rating, Horseweed” value (Canada horseweed; [9]) was 100.
